In one data set the test system is T1, SaRohS.
T1 construct: codon-optimised gene in pETDuet-28a+, E. coli BL21 (DE3), Ni-NTA purified
Description: HPLC of azomycin formed, Michaelis-Menten fit. As to conditions: pH 5.5, 25 °C, 20 min, 10 µM enzyme, 2 mM FeSO4, 50 µM PMS, 5 mM NADH, 20 mM HEPES. The format is biochemical, Saccharothrix sp. The source says: HPLC of azomycin formed, Michaelis-Menten fit on SaRohS

For the next data set, the system named is Nc1ncc[nH]1. Kind of data set: purified protein. Particulars: pH 5.5, 25 °C, 20 min, 10 µM enzyme, 2 mM FeSO4, 50 µM PMS, 5 mM NADH, 20 mM HEPES.

Like-named read-outs stand apart in the source and are kept apart here.

For the compound `Nc1ncc[nH]1` [2-aminoimidazole], the Km in the data set with SaRohS is 182.69 ± 0.01 µM; in the data set on SaRohS (read-out: G95A/K115T), 82.68 ± 0.001 µM; in the data set with SaRohS (read-out: T75A) it was 924.17 ± 0.1 µM.
By kcat is commonly meant the maximal rate divided by the concentration of active sites. As usually defined, the kcat/Km is the second-order rate constant that governs catalysis at low substrate concentration. On to KaRohS (Kitasatospora azatica), for which, in the data set with Nc1ncc[nH]1, the Km is recorded as 390.55 ± 0.02 µM, the turnover number (kcat) was found to be 0.00383 ± 8.33e-05 s⁻¹ and the kcat/Km was determined as 10 M⁻¹ s⁻¹.
